According to PMC8800111 (The Journal of Biological Chemistry, 2021):

What was measured:
Format in all cases: cell-based
[1] = target: proteins of U3A human fibrosarcoma cells (4462 proteins detected) (Homo sapiens, UniProt Q5T5Y3); conditions: protein CAMSAP1; soluble abundance after heat, U3A cells
[2] = target: proteins of U3A human fibrosarcoma cells (4462 proteins detected) (Homo sapiens, UniProt Q8IVL0); conditions: protein NAV3, U3A cells
[3] = target: proteins of U3A human fibrosarcoma cells (4462 proteins detected) (Homo sapiens, UniProt Q03252); conditions: protein LMNB2; U3A cells
[4] = target: proteins of U3A human fibrosarcoma cells (4462 proteins detected) (Homo sapiens, UniProt Q9HCD5); conditions: protein NCOA5; U3A cells
[5] = target: proteins of U3A human fibrosarcoma cells (4462 proteins detected) (Homo sapiens, UniProt Q9P0K7); conditions: protein RAI14; soluble abundance after heat, U3A cells
[6] = target: proteins of U3A human fibrosarcoma cells (4462 proteins detected) (Homo sapiens, UniProt P06733); conditions: protein ENO1; U3A, 10 μM, 2 h
[7] = target: proteins of U3A human fibrosarcoma cells (4462 proteins detected) (Homo sapiens, UniProt P13796); conditions: protein LCP1; soluble abundance after heat, U3A cells
[8] = target: proteins of U3A human fibrosarcoma cells (4462 proteins detected) (Homo sapiens, UniProt O60293); conditions: protein ZFC3H1; U3A cells
[9] = target: proteins of U3A human fibrosarcoma cells (4462 proteins detected) (Homo sapiens, UniProt P54920); conditions: protein NAPA; soluble abundance after heat, U3A cells
[10] = target: proteins of U3A human fibrosarcoma cells (4462 proteins detected) (Homo sapiens, UniProt P78347); conditions: protein GTF2I; U3A cells
[11] = target: proteins of U3A human fibrosarcoma cells (4462 proteins detected) (Homo sapiens, UniProt Q8NFH4); conditions: protein NUP37, U3A cells
[12] = target: proteins of U3A human fibrosarcoma cells (4462 proteins detected) (Homo sapiens, UniProt Q6PD74); conditions: protein AAGAB; U3A cells
[13] = target: proteins of U3A human fibrosarcoma cells (4462 proteins detected) (Homo sapiens, UniProt Q9Y6G5); conditions: protein COMMD10; U3A cells
[14] = target: proteins of U3A human fibrosarcoma cells (4462 proteins detected) (Homo sapiens, UniProt P06756); conditions: protein ITGAV; soluble abundance after heat, U3A cells
[15] = target: proteins of U3A human fibrosarcoma cells (4462 proteins detected) (Homo sapiens, UniProt P40123); conditions: protein CAP2; U3A cells
[16] = target: proteins of U3A human fibrosarcoma cells (4462 proteins detected) (Homo sapiens, UniProt Q9UKX7); conditions: protein NUP50; soluble abundance after heat, U3A cells
[17] = target: proteins of U3A human fibrosarcoma cells (4462 proteins detected) (Homo sapiens, UniProt Q8NBN3); conditions: protein TMEM87A; U3A cells
[18] = target: proteins of U3A human fibrosarcoma cells (4462 proteins detected) (Homo sapiens, UniProt O95983); conditions: protein MBD3; U3A cells
[19] = target: proteins of U3A human fibrosarcoma cells (4462 proteins detected) (Homo sapiens, UniProt Q14657); conditions: protein LAGE3; soluble abundance after heat, U3A cells
[20] = target: proteins of U3A human fibrosarcoma cells (4462 proteins detected) (Homo sapiens, UniProt P26447); conditions: protein S100A4; U3A, 10 μM, 2 h
[21] = target: proteins of U3A human fibrosarcoma cells (4462 proteins detected) (Homo sapiens, UniProt O95453); conditions: protein PARN; U3A cells
[22] = target: proteins of U3A human fibrosarcoma cells (4462 proteins detected) (Homo sapiens, UniProt Q13217); conditions: protein DNAJC3; soluble abundance after heat, U3A cells
[23] = target: proteins of U3A human fibrosarcoma cells (4462 proteins detected) (Homo sapiens, UniProt Q9UNM6); conditions: protein PSMD13; U3A cells
[24] = target: proteins of U3A human fibrosarcoma cells (4462 proteins detected) (Homo sapiens, UniProt Q96TA2); conditions: protein YME1L1; U3A cells
[25] = target: proteins of U3A human fibrosarcoma cells (4462 proteins detected) (Homo sapiens, UniProt Q8IYW5); conditions: protein RNF168; U3A cells
[26] = target: proteins of U3A human fibrosarcoma cells (4462 proteins detected) (Homo sapiens, UniProt Q9BSL1); conditions: protein UBAC1; soluble abundance after heat, U3A cells
[27] = target: proteins of U3A human fibrosarcoma cells (4462 proteins detected) (Homo sapiens, UniProt Q9NS69); conditions: protein TOMM22; soluble abundance after heat, U3A cells
[28] = target: proteins of U3A human fibrosarcoma cells (4462 proteins detected) (Homo sapiens, UniProt Q8N163); conditions: protein CCAR2; U3A cells
[29] = target: proteins of U3A human fibrosarcoma cells (4462 proteins detected) (Homo sapiens, UniProt Q9BRA2); conditions: protein TXNDC17, U3A cells
[30] = target: proteins of U3A human fibrosarcoma cells (4462 proteins detected) (Homo sapiens, UniProt Q6P3W7); conditions: protein SCYL2, U3A cells
Chain of proteins of U3A human fibrosarcoma cells (4462 proteins detected) (Homo sapiens, UniProt Q6P3W7) (Q6P3W7 whole entry): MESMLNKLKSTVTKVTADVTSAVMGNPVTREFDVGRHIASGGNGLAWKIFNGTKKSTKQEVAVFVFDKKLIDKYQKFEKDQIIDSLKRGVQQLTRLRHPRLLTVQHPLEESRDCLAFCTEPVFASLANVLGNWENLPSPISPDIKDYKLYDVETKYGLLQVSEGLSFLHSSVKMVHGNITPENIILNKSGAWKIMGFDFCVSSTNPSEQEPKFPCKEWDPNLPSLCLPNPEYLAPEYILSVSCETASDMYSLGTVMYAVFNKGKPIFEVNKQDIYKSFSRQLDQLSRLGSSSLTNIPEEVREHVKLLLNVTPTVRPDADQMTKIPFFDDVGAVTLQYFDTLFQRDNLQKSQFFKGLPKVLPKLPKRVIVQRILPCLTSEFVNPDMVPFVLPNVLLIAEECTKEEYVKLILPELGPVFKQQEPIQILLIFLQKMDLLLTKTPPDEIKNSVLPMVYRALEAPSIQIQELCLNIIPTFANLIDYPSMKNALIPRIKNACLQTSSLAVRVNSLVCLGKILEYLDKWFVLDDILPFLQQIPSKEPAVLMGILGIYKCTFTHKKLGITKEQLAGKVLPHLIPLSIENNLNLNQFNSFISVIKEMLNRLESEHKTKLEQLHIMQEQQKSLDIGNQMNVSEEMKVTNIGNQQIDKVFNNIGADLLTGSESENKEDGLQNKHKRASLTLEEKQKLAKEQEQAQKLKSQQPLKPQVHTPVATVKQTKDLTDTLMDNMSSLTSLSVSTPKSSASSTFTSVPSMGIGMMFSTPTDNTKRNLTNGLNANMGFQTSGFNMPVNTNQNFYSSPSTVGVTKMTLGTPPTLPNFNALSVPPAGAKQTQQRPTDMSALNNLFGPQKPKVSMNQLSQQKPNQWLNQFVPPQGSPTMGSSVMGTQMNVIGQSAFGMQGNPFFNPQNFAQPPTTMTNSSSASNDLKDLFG

Chain of proteins of U3A human fibrosarcoma cells (4462 proteins detected) (Homo sapiens, UniProt Q9UKX7) (Q9UKX7 whole entry): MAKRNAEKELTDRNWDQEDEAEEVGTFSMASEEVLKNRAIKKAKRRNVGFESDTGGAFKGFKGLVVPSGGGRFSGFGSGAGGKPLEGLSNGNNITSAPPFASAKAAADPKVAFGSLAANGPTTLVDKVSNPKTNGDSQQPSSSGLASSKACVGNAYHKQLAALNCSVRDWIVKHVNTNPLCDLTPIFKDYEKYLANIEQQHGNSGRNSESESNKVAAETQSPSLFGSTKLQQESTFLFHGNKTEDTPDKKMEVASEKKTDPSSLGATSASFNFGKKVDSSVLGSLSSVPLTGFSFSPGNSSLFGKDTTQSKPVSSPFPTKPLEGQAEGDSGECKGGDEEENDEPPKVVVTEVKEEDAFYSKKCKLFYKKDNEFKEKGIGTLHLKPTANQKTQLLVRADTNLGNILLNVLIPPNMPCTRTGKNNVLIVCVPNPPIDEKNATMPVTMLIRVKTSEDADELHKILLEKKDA
Chain of proteins of U3A human fibrosarcoma cells (4462 proteins detected) (Homo sapiens, UniProt P78347) (P78347 whole entry): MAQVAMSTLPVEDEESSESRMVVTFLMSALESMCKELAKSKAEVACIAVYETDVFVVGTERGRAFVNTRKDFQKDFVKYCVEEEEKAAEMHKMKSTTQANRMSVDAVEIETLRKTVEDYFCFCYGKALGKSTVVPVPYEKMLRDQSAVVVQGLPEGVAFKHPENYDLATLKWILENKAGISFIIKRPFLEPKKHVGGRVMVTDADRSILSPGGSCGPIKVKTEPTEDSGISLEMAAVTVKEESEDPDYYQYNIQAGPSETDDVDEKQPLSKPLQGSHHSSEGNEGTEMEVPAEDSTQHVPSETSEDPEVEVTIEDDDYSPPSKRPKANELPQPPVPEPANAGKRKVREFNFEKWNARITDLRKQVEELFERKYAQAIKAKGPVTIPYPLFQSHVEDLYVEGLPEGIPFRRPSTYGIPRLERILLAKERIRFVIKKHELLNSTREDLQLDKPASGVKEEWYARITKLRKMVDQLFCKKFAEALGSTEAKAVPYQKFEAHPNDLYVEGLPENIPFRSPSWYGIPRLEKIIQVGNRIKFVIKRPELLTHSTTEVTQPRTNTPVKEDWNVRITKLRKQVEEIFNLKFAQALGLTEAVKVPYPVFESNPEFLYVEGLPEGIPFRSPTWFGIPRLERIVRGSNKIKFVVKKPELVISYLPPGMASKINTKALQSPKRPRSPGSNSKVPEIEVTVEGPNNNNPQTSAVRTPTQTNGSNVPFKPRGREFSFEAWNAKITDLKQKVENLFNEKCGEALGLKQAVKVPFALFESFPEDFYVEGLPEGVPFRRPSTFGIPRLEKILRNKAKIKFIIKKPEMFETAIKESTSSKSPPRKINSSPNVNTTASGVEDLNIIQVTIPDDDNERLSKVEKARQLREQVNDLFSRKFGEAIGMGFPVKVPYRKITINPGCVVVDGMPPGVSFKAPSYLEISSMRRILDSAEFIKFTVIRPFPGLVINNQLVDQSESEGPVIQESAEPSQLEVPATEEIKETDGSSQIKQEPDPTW
Chain of proteins of U3A human fibrosarcoma cells (4462 proteins detected) (Homo sapiens, UniProt Q8N163) (Q8N163 whole entry): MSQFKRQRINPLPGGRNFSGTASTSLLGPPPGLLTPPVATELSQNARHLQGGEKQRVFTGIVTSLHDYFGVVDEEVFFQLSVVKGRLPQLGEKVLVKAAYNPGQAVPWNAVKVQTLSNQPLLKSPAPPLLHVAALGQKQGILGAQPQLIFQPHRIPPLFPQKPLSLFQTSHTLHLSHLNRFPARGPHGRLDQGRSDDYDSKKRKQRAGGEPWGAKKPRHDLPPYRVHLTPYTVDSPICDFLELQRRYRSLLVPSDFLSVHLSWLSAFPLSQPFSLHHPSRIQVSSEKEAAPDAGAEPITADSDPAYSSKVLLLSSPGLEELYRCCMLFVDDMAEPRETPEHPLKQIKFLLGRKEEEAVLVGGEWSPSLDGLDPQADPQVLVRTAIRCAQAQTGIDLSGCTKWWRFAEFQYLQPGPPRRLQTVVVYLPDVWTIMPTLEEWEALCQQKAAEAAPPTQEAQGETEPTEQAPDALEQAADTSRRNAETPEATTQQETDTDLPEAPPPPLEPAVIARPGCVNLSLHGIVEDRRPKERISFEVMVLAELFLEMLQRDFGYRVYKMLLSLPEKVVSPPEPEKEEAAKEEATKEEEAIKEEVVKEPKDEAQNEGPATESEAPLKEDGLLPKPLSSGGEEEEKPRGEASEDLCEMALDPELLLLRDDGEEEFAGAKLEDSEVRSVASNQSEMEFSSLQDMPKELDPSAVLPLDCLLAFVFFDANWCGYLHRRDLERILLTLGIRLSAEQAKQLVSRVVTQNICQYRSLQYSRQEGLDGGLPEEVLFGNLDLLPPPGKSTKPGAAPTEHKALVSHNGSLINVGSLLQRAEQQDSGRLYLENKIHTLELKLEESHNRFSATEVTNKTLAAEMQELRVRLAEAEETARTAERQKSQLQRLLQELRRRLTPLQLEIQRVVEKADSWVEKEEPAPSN
Chain of proteins of U3A human fibrosarcoma cells (4462 proteins detected) (Homo sapiens, UniProt Q9UNM6) (Q9UNM6 whole entry): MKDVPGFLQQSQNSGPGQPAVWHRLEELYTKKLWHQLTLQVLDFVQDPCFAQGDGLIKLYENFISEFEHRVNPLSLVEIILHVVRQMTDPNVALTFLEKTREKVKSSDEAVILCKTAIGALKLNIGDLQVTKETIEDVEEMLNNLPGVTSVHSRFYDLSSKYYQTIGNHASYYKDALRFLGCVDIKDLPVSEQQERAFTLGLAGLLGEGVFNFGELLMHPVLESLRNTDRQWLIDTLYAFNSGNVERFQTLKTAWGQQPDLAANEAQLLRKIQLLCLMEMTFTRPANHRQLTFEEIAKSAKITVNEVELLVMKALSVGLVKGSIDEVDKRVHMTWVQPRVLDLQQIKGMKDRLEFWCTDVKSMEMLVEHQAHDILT
Chain of proteins of U3A human fibrosarcoma cells (4462 proteins detected) (Homo sapiens, UniProt Q8IYW5) (Q8IYW5 whole entry): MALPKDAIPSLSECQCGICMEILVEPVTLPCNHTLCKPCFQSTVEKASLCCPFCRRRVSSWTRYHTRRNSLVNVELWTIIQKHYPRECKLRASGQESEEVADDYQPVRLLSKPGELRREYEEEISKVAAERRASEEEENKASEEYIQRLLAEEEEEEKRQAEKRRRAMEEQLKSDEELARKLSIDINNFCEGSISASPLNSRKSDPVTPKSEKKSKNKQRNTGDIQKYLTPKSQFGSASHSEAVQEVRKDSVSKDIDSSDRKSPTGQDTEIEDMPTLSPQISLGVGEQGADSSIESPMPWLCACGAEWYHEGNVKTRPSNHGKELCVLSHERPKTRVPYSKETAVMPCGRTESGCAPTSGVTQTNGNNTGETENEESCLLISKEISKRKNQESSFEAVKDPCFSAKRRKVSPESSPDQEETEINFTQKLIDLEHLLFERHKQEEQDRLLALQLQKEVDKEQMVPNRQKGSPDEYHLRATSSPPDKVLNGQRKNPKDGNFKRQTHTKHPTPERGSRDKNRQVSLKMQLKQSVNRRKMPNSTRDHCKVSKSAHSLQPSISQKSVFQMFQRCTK
Chain of proteins of U3A human fibrosarcoma cells (4462 proteins detected) (Homo sapiens, UniProt Q14657) (Q14657 whole entry): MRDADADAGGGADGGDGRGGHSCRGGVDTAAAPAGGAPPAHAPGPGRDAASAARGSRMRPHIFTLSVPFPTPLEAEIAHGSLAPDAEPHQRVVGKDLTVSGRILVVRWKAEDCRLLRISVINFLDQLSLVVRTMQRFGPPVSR
Chain of proteins of U3A human fibrosarcoma cells (4462 proteins detected) (Homo sapiens, UniProt Q6PD74) (Q6PD74 whole entry): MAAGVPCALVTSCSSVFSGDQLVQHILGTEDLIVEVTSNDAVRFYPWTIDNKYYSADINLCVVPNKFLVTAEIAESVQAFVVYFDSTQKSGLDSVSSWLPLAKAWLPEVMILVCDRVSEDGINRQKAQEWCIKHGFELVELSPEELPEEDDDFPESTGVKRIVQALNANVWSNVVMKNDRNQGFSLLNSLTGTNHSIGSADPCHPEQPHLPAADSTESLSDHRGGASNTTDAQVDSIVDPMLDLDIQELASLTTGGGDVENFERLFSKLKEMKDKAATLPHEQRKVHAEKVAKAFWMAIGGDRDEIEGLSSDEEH
Chain of proteins of U3A human fibrosarcoma cells (4462 proteins detected) (Homo sapiens, UniProt P54920) (P54920 whole entry): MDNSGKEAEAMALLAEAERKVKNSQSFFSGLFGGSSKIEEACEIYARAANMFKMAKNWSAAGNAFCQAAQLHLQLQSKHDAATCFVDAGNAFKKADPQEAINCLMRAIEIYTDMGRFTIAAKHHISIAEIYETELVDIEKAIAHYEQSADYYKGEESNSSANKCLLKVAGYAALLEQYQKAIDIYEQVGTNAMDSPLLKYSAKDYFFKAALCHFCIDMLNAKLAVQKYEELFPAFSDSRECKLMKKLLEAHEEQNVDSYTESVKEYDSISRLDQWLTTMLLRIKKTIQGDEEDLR

## CCc1nc(N)nc(N)c1-c1ccc(Cl)cc1 [pyrimethamine]
[1]
  Log2 (PYR/DMSO): 0.13
[2]
  Log2 (PYR/DMSO): -0.04
[3]
  Log2 (PYR/DMSO): 0.19
[4]
  Log2 (PYR/DMSO): 0.17
[5]
  Log2 (PYR/DMSO): 0.15
[6]
  Log2 (PYR/DMSO), ENO1: -0.17
[7]
  Log2 (PYR/DMSO): 0.15
[8]
  Log2 (PYR/DMSO): 0.18
[9]
  Log2 (PYR/DMSO): 0.14
[10]
  Log2 (PYR/DMSO): 0.23
[11]
  Log2 (PYR/DMSO): -0.04
[12]
  Log2 (PYR/DMSO): 0.18
[13]
  Log2 (PYR/DMSO): 0.22
[14]
  Log2 (PYR/DMSO): 0.14
[15]
  Log2 (PYR/DMSO): 0.21
[16]
  Log2 (PYR/DMSO): 0.15
[17]
  Log2 (PYR/DMSO): 0.19
[18]
  Log2 (PYR/DMSO): 0.16
[19]
  Log2 (PYR/DMSO): 0.14
[20]
  Log2 (PYR/DMSO), S100A4: -0.16
[21]
  Log2 (PYR/DMSO): 0.21
[22]
  Log2 (PYR/DMSO): 0.14
[23]
  Log2 (PYR/DMSO): 0.17
[24]
  Log2 (PYR/DMSO): 0.16
[25]
  Log2 (PYR/DMSO): 0.17
[26]
  Log2 (PYR/DMSO): 0.13
[27]
  Log2 (PYR/DMSO): 0.14
[28]
  Log2 (PYR/DMSO): 0.18
[29]
  Log2 (PYR/DMSO): -0.05
[30]
  Log2 (PYR/DMSO): -0.04
